Key:
[1] = target: Sodium-dependent dopamine transporter (Rattus norvegicus) (UniProt P23977); experiment: Inhibition of [3H]dopamine uptake at dopamine transporter expressed in rat striatal homogenate after 5 mins by scintillation counting analysis relative to (+)-amphetamine
Rattus norvegicus = species: Rattus norvegicus; experiment: Inhibition of [3H]norepinephrine uptake at NET expressed in rat hypothalamic homogenate containing synaptosomes after 5 mins by scintillation counting analysis relative to (+)-amphetamine; format: subcellular; settings: Brain
[2] = target: Sodium-dependent dopamine transporter (Rattus norvegicus, UniProt P23977); experiment: Inhibition of [3H]dopamine uptake at dopamine transporter expressed in rat striatal homogenate after 5 mins by scintillation counting analysis
Sodium-dependent dopamine transporter, sequence (P23977 whole entry): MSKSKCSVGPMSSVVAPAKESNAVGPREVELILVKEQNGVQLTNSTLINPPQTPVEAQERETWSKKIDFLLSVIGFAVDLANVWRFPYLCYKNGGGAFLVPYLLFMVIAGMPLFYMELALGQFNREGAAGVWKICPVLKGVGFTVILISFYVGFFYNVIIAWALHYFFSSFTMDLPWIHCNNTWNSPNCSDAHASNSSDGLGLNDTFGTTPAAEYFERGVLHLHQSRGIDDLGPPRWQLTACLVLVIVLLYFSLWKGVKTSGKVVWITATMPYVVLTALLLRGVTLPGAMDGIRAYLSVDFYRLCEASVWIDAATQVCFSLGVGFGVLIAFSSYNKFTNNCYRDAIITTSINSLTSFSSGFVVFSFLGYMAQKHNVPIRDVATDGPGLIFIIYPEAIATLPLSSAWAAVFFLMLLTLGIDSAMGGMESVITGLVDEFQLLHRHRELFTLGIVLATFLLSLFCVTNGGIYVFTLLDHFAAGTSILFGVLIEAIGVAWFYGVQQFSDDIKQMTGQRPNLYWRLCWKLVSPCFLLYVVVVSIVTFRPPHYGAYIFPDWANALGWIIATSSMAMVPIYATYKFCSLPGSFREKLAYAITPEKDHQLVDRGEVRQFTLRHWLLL

Transporter = Transporter (Rattus norvegicus, UniProt Q63380); experiment: Inhibition of [3H]norepinephrine uptake at NET expressed in rat hypothalamic homogenate containing synaptosomes after 5 mins by scintillation counting analysis; format: subcellular, Brain
Transporter, sequence (Q63380 whole entry): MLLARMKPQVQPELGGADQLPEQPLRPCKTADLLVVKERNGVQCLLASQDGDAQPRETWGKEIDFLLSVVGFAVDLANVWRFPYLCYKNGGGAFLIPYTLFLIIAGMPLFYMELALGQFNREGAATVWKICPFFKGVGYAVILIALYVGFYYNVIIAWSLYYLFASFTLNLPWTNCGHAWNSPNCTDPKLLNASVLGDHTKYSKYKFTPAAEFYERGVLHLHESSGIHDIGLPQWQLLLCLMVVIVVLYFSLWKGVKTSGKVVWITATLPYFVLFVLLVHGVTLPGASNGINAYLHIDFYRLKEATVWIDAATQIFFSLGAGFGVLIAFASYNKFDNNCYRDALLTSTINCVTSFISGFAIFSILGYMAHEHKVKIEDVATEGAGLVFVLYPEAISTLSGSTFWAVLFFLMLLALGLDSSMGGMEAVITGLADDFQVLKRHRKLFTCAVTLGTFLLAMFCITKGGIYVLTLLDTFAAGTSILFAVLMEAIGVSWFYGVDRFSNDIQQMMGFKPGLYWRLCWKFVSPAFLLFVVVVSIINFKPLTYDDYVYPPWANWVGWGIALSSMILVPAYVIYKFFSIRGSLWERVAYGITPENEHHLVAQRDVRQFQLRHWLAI

Sodium-dependent dopamine transporter (Rattus norvegicus), sequence (P23977 whole entry): as the sequence (P23977 whole entry) above

SMILES	fold change (FC) [1]	fold change (FC) (Rattus norvegicus)	IC50 [2] [µM]	IC50 (Transporter) [µM]
NC[C@H](O)c1ccc(O)c(O)c1	100	100	–	–
NC1C[C@@H]2CCCC[C@H]2CC1(O)c1ccc(O)c(O)c1 (mixture of isomers; form 3)	1.1	0.03	–	–
NC1C[C@@H]2CCCC[C@H]2CC1(O)c1ccc(O)c(O)c1 (mixture of isomers; form 4)	5.7	2	–	–
NC1C[C@@H]2CCCC[C@H]2CC1(O)c1ccc(O)c(O)c1 (mixture of isomers; form 2)	50	8.9	–	–
NC1C[C@@H]2CCCC[C@H]2CC1c1ccccc1 (mixture of isomers; 3) [listing 1 of 2 here]	–	–	20	9
NC1C[C@@H]2CCCC[C@H]2CC1c1ccccc1 (mixture of isomers; 4) [listing 1 of 2 here]	14	3.6	–	–
NC1C[C@@H]2CCCC[C@H]2CC1c1ccccc1 (mixture of isomers; 2) [listing 1 of 2 here]	8	1.1	–	–
NC1C[C@@H]2CCCC[C@H]2CC1c1ccccc1 (mixture of isomers; 3) [listing 2 of 2 here]	4.8	2.2	–	–
NC1C[C@@H]2CCCC[C@H]2CC1c1ccccc1 (mixture of isomers; 4) [listing 2 of 2 here]	–	–	7	5.5
NC1C[C@@H]2CCCC[C@H]2CC1c1ccccc1 (mixture of isomers; 1) [listing 1 of 2 here]	–	–	3.8	0.66
NC1C[C@@H]2CCCC[C@H]2CC1c1ccccc1 (mixture of isomers; 1) [listing 2 of 2 here]	25	30	–	–
NC1C[C@@H]2CCCC[C@H]2CC1(O)c1ccc(O)c(O)c1 (mixture of isomers; form 1)	2.3	4.4	–	–
NC1C[C@@H]2CCCC[C@H]2CC1c1ccccc1 (mixture of isomers; 2) [listing 2 of 2 here]	–	–	12	18

From ChEMBL document CHEMBL3271962 (J Med Chem, 1976)
